Patent publication US4122184A, “Benzimidazole insecticides” (priority 1977, dated 1978)
Values joined by “and” are separate entries in the source; they are usually repeats but may differ in a detail not shown here. Identical values can stand only once.

Columns and labels:
Southern Armyworm = Southern Armyworm Test; type: in vivo, Prodenia eridania (Lepidoptera); details: 48 h
Method: Ten uniform Southern armyworm larvae about 1-1.5 cm. in length, grown on Henderson lima beans, are placed on excized bean leaves in petri dishes. The bean leaves are obtained and sprayed with the insecticide in the same way as are the snap bean leaves in the Mexican bean beetle test. The reference standards in this instance are leaves sprayed with 5 ml. 100 ppm DDT solution. Mortality counts are made 48 hours after spraying and again moribund larvae are counted as dead. Missing larvae which have probably been eaten are considered alive. The same rating scale is used as in the Mexican bean beetle test.

Melon Aphid = Melon Aphid Test; type: in vivo, Aphis gossypii (Hemiptera); details: 24 h
From the text: Four blue hubbard squash seeds are planted per container in vermiculite and the containers watered from the bottom. After 6 days, the two weakest plants are cut off and one cotyledon and the primary leaves are removed from each of the two remaining plants. The remaining cotyledon is infested with 100 melon aphids from a stock colony by pinning the cotyledon against an aphid-infested squash cotyledon from the colony and allowing the aphids to transfer. After transfer, the colony leaf is removed. Forty-eight hours later, the infested leaves are sprayed to wetting with formulations containing graded amounts of the insecticide using a DeVilbiss atomizer at 10 psi held at 12-15 inches from the plant. Controls consist of two infested, unsprayed squash plants and two infested plants sprayed to wetting with a formulation containing 100 ppm malathion as a reference standard. The mortality is estimated 24 hours after spraying by observation using a 10 power dissecting microscope. The same rating scale is used as before.

Two-spotted Spider Mite = Two-spotted Spider Mite test; type: in vivo, Tetranychus urticae (Acarina); details: 48 h
Method: The procedure in this test is the same as that in the previous aphid test, except that about 100 two-spotted spider mites from a stock colony raised on squash plants are transferred to a cut squash cotyledon. The mortality is estimated 48 hours after spraying. The same rating scale is used.

Milkweed Bug = Milkweed Bug Test; type: in vivo, Oncopeltis fasciatus (Hemiptera); details: 48 h
Method: Ten adult milkweed bugs are chilled and placed in a test cage. The cages containing the bugs are sprayed with 5 ml. of a test formulation containing a pre-determined amount of the insecticide, using a DeVilbiss atomizer at 10 psi held 33 inches from the top of the cage. After the cage has been allowed to dry, the bugs are fed and watered for 48 hours. A formulation containing 500 ppm of malathion is used as a reference standard and two unsprayed cages are kept as controls. Mortality counts are made 48 hours after spraying. Moribund adults are considered dead. The same rating scale is employed as before.

Oriental Cockroach = test: Oriental Roach Test; type: in vivo, Blatta orientalis (Orthoptera); details: 24 h
Method: A rearing pan of late instar (3-4 months old) roaches is placed in a cold room for about 1 hour. Ten nymphs are taken from the pan and placed in each cage and the caged insects are kept at 70°-80° F. for 1 hour. The test cages are then sprayed in the manner indicated above in the milkweed bug test using 5 ml. of a formulation containing a specified amount of the insecticide. The test cages are held for 72 hours during which time the cockroaches are neither fed nor watered. Controls consist of 2 unsprayed cages, two cages sprayed with the formulation alone and 2 cages with a formulation containing 1000 ppm of heptachlor. Mortality counts are made 24 hours after spraying by shaking the cages lightly. All cockroaches remaining in the bottom are counted as dead.

Boll Weevil = test: Field trial (first summer), topical; type: in vivo, Anthonomus grandis; details: .078125 μg/μl
Method in brief: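 Field trial from the first summer in which 1 µl of test solution holding a set number of micrograms of benzimidazole was applied topically to larvae or adult insects. Mortality at a given route and concentration was scored on a 0–9 scale.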

Bean Leaf Beetle [1] = test: Field trial, stomach poison test; type: in vivo
Method in brief: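 Leaves from infested host plants were sprayed (atomizer, 10 psi) or dipped in compound solutions at several concentrations, air-dried, then placed in Petri dishes with five or ten insects each. One or two replicates, usually two or three rates; mortality read at 24, 48 and 72 h on a 0–9 scale.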

Squash Bug Adults = test: Field trial, contact poison test; type: in vivo; parameters: key: 0-9 rating: 0 = 0-10% mortality, 9 = 91-100% mortality
Method in brief: (§1)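 Mortality after direct spraying was scored at 24, 48 and 72 hours where applicable, using a 0–9 rating tied to 10% bands. Plants bearing insects received atomized compound at 10 psi over a range of concentrations.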

Bean Leaf Beetle [2] = test: Field trial, contact poison test; type: in vivo
Method in brief: as §1

[3] = test system: Red-Legged Grasshopper Adults; test: Field trial, contact poison test; type: in vivo
Method in brief: as §1

[4] = test system: Southern Corn Rootworm Adults; test: Field trial, contact poison test; type: in vivo
Method in brief: as §1

Compound: mixture of N,N-dimethyl-4-nitro-2,6-bis(trifluoromethyl)thio-1-benzimidazolecarboxamide and N,N-dimethyl-7-nitro-2,5-bis(trifluoromethyl)thio-1-benzimidazolecarboxamide [P]
- mortality rating (Southern Armyworm; 250 ppm): 0 (0-10)
- mortality rating (Southern Armyworm; 500 ppm): 0 (0-10)
- mortality rating (Southern Armyworm; 1000 ppm): 3.5
- mortality rating (Melon Aphid; 10 ppm): 0 (0-10)
- mortality rating (Melon Aphid; 25 ppm): 1.5
- mortality rating (Melon Aphid; 100 ppm): 4 (41-50)
- mortality rating (Melon Aphid; 250 ppm): 7 (71-80)
- mortality rating (Melon Aphid; 500 ppm): 7.5
- mortality rating (Melon Aphid; 1000 ppm): 4.5
- mortality rating (Two-spotted Spider Mite; 1 ppm): 3 (31-40)
- mortality rating (Two-spotted Spider Mite; 5 ppm): 4 (41-50)
- mortality rating (Two-spotted Spider Mite; 10 ppm): 4 (41-50)
- mortality rating (Two-spotted Spider Mite; 25 ppm): 6 (61-70)
- mortality rating (Two-spotted Spider Mite; 50 ppm): 7.0
- mortality rating (Two-spotted Spider Mite; 100 ppm): 7.5
- mortality rating (Two-spotted Spider Mite; 250 ppm): 8.5
- mortality rating (Two-spotted Spider Mite; 500 ppm): 9 (91-100)
- mortality rating (Two-spotted Spider Mite; 1000 ppm): 9 (91-100)
- mortality rating (Milkweed Bug; 10 ppm): 0 (0-10)
- mortality rating (Milkweed Bug; 25 ppm): 0 (0-10)
- mortality rating (Milkweed Bug; 50 ppm): 3.5
- mortality rating (Milkweed Bug; 100 ppm): 4.5
- mortality rating (Milkweed Bug; 250 ppm): 4 (41-50)
- mortality rating (Milkweed Bug; 500 ppm): 4 (41-50)
- mortality rating (Milkweed Bug; 1000 ppm): 2 (21-30)
- mortality rating (Oriental Cockroach; 50 ppm): 0 (0-10)
- mortality rating (Oriental Cockroach; 100 ppm): 2.5
- mortality rating (Oriental Cockroach; 250 ppm): 5.5
- mortality rating (Oriental Cockroach; 500 ppm): 9 (91-100)
- mortality rating (Oriental Cockroach; 1000 ppm): 8 (81-90)
- insect mortality rating (Boll Weevil): 9 (91-100 percent mortality)

Compound: O=[N+]([O-])c1cc(C(F)(F)F)cc2nc(C(F)(F)F)[nH]c12 [A, 2,6-bis(trifluoromethyl)-4-nitrobenzimidazole]
- average mortality rating (Bean Leaf Beetle [1]; 10 ppm): 0 (0-10 percent)
- average mortality rating (Bean Leaf Beetle [1]; 25 ppm): 0 (0-10 percent)
- average mortality rating (Bean Leaf Beetle [1]; 50 ppm): 1
- average mortality rating (Squash Bug Adults; 125 ppm): 0 (0-10 percent)
- average mortality rating (Squash Bug Adults; 250 ppm): 6
- average mortality rating (Squash Bug Adults; 500 ppm): 9 (91-100 percent mortality)
- average mortality rating (Squash Bug Adults; 750 ppm): 9 (91-100 percent mortality)
- average mortality rating (Bean Leaf Beetle [2]; 25 ppm): 0 (0-10 percent)
- average mortality rating (Bean Leaf Beetle [2]; 50 ppm): 0 (0-10 percent)
- average mortality rating (Bean Leaf Beetle [2]; 100 ppm): 0 (0-10 percent)
- average mortality rating ([3]; 10 ppm): 3
- average mortality rating ([3]; 25 ppm): 4
- average mortality rating ([3]; 50 ppm): 4
- average mortality rating ([4]; 25 ppm): 4
- average mortality rating ([4]; 50 ppm): 6
- average mortality rating ([4]; 100 ppm): 8
- insect mortality rating (Boll Weevil): 9 (91-100 percent mortality)

Compound: CC(C)OC(=O)n1c(C(F)(F)F)nc2c([N+](=O)[O-])cc(C(F)(F)F)cc21 [I, isopropyl 2,6-bis(trifluoromethyl)-4-nitro-1-benzimidazolecarboxylate]
- mortality rating (Melon Aphid; 50 ppm): 8.5
- mortality rating (Melon Aphid; 250 ppm): 6.5
- mortality rating (Oriental Cockroach; 100 ppm): 1.5
- mortality rating (Oriental Cockroach; 250 ppm): 5.5
- mortality rating (Oriental Cockroach; 500 ppm): 6.5
- average mortality rating (Bean Leaf Beetle [1]; 10 ppm): 0 (0-10 percent)
- average mortality rating (Bean Leaf Beetle [1]; 25 ppm): 1
- average mortality rating (Bean Leaf Beetle [1]; 50 ppm): 3
- average mortality rating (Squash Bug Adults; 125 ppm): 3
- average mortality rating (Squash Bug Adults; 250 ppm): 1
- average mortality rating (Squash Bug Adults; 500 ppm): 0 (0-10 percent)
- average mortality rating (Squash Bug Adults; 750 ppm): 0 (0-10 percent)
- average mortality rating (Bean Leaf Beetle [2]; 25 ppm): 0 (0-10 percent)
- average mortality rating (Bean Leaf Beetle [2]; 50 ppm): 0 (0-10 percent)
- average mortality rating (Bean Leaf Beetle [2]; 100 ppm): 4
- average mortality rating ([3]; 10 ppm): 2
- average mortality rating ([3]; 25 ppm): 3
- average mortality rating ([3]; 50 ppm): 5

Compound: O=[N+]([O-])c1cc(C(F)(F)F)cc2[nH]c(C(F)(F)Cl)nc12 [L, 2-chlorodifluoromethyl-4-nitro-6-trifluoromethylbenzimidazole]
- mortality rating (Southern Armyworm; 500 ppm): 1.5
- mortality rating (Melon Aphid; 25 ppm): 5.5
- mortality rating (Two-spotted Spider Mite; 5 ppm): 7.5
- mortality rating (Milkweed Bug; 100 ppm): 4.5
- mortality rating (Oriental Cockroach; 500 ppm): 5.5
- average mortality rating (Bean Leaf Beetle [1]; 10 ppm): 1
- average mortality rating (Bean Leaf Beetle [1]; 25 ppm): 1
- average mortality rating (Bean Leaf Beetle [1]; 50 ppm): 0 (0-10 percent)
- average mortality rating (Squash Bug Adults; 125 ppm): 0 (0-10 percent)
- average mortality rating (Squash Bug Adults; 250 ppm): 6
- average mortality rating (Squash Bug Adults; 500 ppm): 6
- average mortality rating (Squash Bug Adults; 750 ppm): 9 (91-100 percent mortality)
- average mortality rating (Bean Leaf Beetle [2]; 25 ppm): 0 (0-10 percent)
- average mortality rating (Bean Leaf Beetle [2]; 50 ppm): 4
- average mortality rating (Bean Leaf Beetle [2]; 100 ppm): 6
- average mortality rating ([3]; 25 ppm): 7
- average mortality rating ([3]; 50 ppm): 9 (91-100 percent mortality)
- average mortality rating ([4]; 25 ppm): 5
- average mortality rating ([4]; 50 ppm): 8
- average mortality rating ([4]; 100 ppm): 9 (91-100 percent mortality)

Compound: mixture of methyl 2,6-bis(trifluoromethyl)-4-nitro-1-benzimidazolecarboxylate and methyl 2,5-bis(trifluoromethyl)-7-nitro-1-benzimidazolecarboxylate
- mortality rating (Southern Armyworm; 1000 ppm): 1 (11-20)
- mortality rating (Melon Aphid; 25 ppm): 0 (0-10)
- mortality rating (Melon Aphid; 50 ppm): 2 (21-30)
- mortality rating (Melon Aphid; 100 ppm): 4 (41-50)
- mortality rating (Melon Aphid; 250 ppm): 9 (91-100)
- mortality rating (Melon Aphid; 500 ppm): 9 (91-100)
- mortality rating (Melon Aphid; 1000 ppm): 9 (91-100)
- mortality rating (Two-spotted Spider Mite; 10 ppm): 3 (31-40)
- mortality rating (Two-spotted Spider Mite; 25 ppm): 4 (41-50)
- mortality rating (Two-spotted Spider Mite; 50 ppm): 9 (91-100)
- mortality rating (Two-spotted Spider Mite; 100 ppm): 6 (61-70)
- mortality rating (Two-spotted Spider Mite; 250 ppm): 9 (91-100)
- mortality rating (Two-spotted Spider Mite; 500 ppm): 9 (91-100)
- mortality rating (Two-spotted Spider Mite; 1000 ppm): 9 (91-100)
- mortality rating (Milkweed Bug; 25 ppm): 5 (51-60)
- mortality rating (Milkweed Bug; 100 ppm): 8 (81-90)
- mortality rating (Milkweed Bug; 250 ppm): 9 (91-100)
- mortality rating (Milkweed Bug; 500 ppm): 9 (91-100)
- mortality rating (Milkweed Bug; 1000 ppm): 9 (91-100)
- mortality rating (Oriental Cockroach; 50 ppm): 0 (0-10)
- mortality rating (Oriental Cockroach; 100 ppm): 0 (0-10)
- mortality rating (Oriental Cockroach; 250 ppm): 5.5
- mortality rating (Oriental Cockroach; 500 ppm): 9 (91-100)
- mortality rating (Oriental Cockroach; 1000 ppm): 9 (91-100)
- average mortality rating (Bean Leaf Beetle [1]; 10 ppm): 1
- average mortality rating (Bean Leaf Beetle [1]; 25 ppm): 0 (0-10 percent)
- average mortality rating (Bean Leaf Beetle [1]; 50 ppm): 1
- average mortality rating (Squash Bug Adults; 125 ppm): 0 (0-10 percent)
- average mortality rating (Squash Bug Adults; 250 ppm): 0 (0-10 percent)
- average mortality rating (Squash Bug Adults; 500 ppm): 2
- average mortality rating (Squash Bug Adults; 750 ppm): 3
- average mortality rating (Bean Leaf Beetle [2]; 25 ppm): 0 (0-10 percent)
- average mortality rating (Bean Leaf Beetle [2]; 50 ppm): 0 (0-10 percent)
- average mortality rating (Bean Leaf Beetle [2]; 100 ppm): 1
- average mortality rating ([4]; 25 ppm): 5 and 3
- average mortality rating ([4]; 100 ppm): 9 (91-100 percent mortality)
- insect mortality rating (Boll Weevil): 9 (91-100 percent mortality)
